ChEMBL document CHEMBL1132823, “Fatty acid amide hydrolase substrate specificity” (Bioorg Med Chem Lett, 2000)

Molecular target: T1, Fatty-acid amide hydrolase 1 (Rattus norvegicus) (UniProt P97612)
T1 sequence (whole entry): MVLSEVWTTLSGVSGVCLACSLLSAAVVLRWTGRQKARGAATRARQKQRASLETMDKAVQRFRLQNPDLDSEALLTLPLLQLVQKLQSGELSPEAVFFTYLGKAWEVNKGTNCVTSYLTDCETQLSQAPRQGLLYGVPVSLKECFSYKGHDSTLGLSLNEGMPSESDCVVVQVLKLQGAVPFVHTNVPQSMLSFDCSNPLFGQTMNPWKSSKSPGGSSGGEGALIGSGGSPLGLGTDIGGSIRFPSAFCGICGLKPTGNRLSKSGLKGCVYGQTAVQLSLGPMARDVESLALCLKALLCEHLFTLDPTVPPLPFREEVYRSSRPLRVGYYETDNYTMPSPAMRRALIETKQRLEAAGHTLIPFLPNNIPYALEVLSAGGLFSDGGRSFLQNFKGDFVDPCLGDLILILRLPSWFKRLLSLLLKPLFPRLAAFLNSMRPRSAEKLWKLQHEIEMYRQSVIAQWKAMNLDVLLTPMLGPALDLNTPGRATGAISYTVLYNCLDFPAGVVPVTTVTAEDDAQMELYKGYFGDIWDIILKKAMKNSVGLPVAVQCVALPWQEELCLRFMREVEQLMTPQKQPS
Experiment: Relative rate of fatty acid amide hydrolase hydrolysis of compound compared to that of oleamide.

CCCCCCCCCCCCCCCC(N)=O
Relative rate of hydrolysis: 0.72

CC/C=C\CCCCCCCCCCCCCC(N)=O
Relative rate of hydrolysis: 0.9

CCCCC/C=C/C/C=C/CCCCCCCC(N)=O (stereo in doubt; 22)
Relative rate of hydrolysis: 0.54

C1CCCCCCNCCCCC1
Relative rate of hydrolysis: 0.74

CCCCC/C=C/C/C=C/CCCCCCCCCC(N)=O
Relative rate of hydrolysis: 1.27

CCCCCCCCCCCCCCCCCC(N)=O
Relative rate of hydrolysis: 0.69

CCCCCCCC/C=C/CCCCCCNC(N)=O
Relative rate of hydrolysis: < 0.001

CCCCCC/C=C/CCCCCCCC(N)=O
Relative rate of hydrolysis: 0.79

CCCCCCCC/C=C/CCCCCCOC(N)=O
Relative rate of hydrolysis: 0.1

CCCCC/C=C/C/C=C/CCCCCCCC(N)=O (stereo in doubt; 21)
Relative rate of hydrolysis: 1.04

CCCCCCCCCCCCCC/C=C\CCCC(N)=O
Relative rate of hydrolysis: 1.16

CCCCC/C=C/C/C=C/C/C=C/C/C=C/CCCC(N)=O
Relative rate of hydrolysis: 3.11

CCCCCCCC/C=C/CCCCCCC(C)C(N)=O (configuration not stated)
Relative rate of hydrolysis: 0.07

CCCC/C=C/CCCCCCCC(N)=O
Relative rate of hydrolysis: 0.86

CCCCCCCCCC/C=C\CCCCCC(N)=O
Relative rate of hydrolysis: 1.09

CCCCC/C=C\C/C=C\C/C=C\C/C=C\CCCC(=O)NCCO
Relative rate of hydrolysis: 1.68

CC/C=C/C/C=C/C/C=C/C/C=C/C/C=C/C/C=C/CCC(N)=O
Relative rate of hydrolysis: 0.82

CCCCCCCC/C=C\CCCCCCCC(N)=O
Relative rate of hydrolysis: 1

CCCC/C=C\CCCCCCCCCCCC(N)=O
Relative rate of hydrolysis: 0.82

CCCCC/C=C/C/C=C/C/C=C/CCCCCCC(N)=O
Relative rate of hydrolysis: 1.38

CCCCCCCCCCC/C=C\CCCCC(N)=O
Relative rate of hydrolysis: 0.91

CCCCCCCC/C=C/CCCCCCCCCCCC(N)=O
Relative rate of hydrolysis: 0.83

CCCCCCCC/C=C/CCCCCCCC(N)=O
Relative rate of hydrolysis: 0.52

CCCCCCCC/C=C\CCCCCCCCCC(N)=O
Relative rate of hydrolysis: 1.05

CCCCCCCC/C=C/CCCCCCCCCCCCCC(N)=O
Relative rate of hydrolysis: 0.82

CCCCCC/C=C\CCCCCCCCCCCC(N)=O
Relative rate of hydrolysis: 1.03

CCCCCCCC/C=C/CCCCCCC(C)(C)C(N)=O
Relative rate of hydrolysis: 0.03

CCCCCCCCCCC/C=C\CCCCCCC(N)=O
Relative rate of hydrolysis: 1.12

CCCCCCCCCCCCCC(N)=O
Relative rate of hydrolysis: 0.83

CC/C=C/C/C=C/C/C=C/CCCCCCCCCC(N)=O
Relative rate of hydrolysis: 1.4

CC/C=C/C/C=C/C/C=C/CCCCCCCC(N)=O
Relative rate of hydrolysis: 1.38

CCCCC/C=C\CCCCCCCCCCC(N)=O
Relative rate of hydrolysis: 0.92
